The target of data set [1] is dopamine receptor. Description: dopamine receptor stimulant activity in vitro, electrically stimulated mouse vas deferens preparation. The settings on record: for IC50: electrically stimulated mouse vas deferens, read-out: In vitro test Mouse vas deferens ID50. As for the experimental part: The dopamine receptor stimulant activities in vitro were determined on electrically stimulated mouse vas deferens preparation (J. Hughes et al., Brit. J. Pharmacol. 53, 371-381 /1975/).

In data set [2] the test system is dopamine receptor. The experiment in a line: antagonism of narcosis-potentiating effect of Haloperidol in rats. It is filed as in vivo. Here is the method:
The in vivo measurements were performed on rats. The antagonism of narcosis-(Hexobarbital Na, 50 mg/kg i.v.)-potentiating effect of Haloperidol (5 mg/kg i.p.) was determined according to Borsy et al. (Acta Physiol. 27, 65-80 /1965/).

The nature of data set [3]: hypotensive activity in anesthetized cats. The format is in vivo. As for the experimental part:
The measurements were performed in cats anesthetized with 30 mg/kg of Pentothal (5-ethyl-5-(1-methylbutyl)-2-thiobarbituric acid sodium salt). The left femoral artery was cannulated; the arterial blood pressure was measured by means of Statham P 23 pressure transducer and registrated by a Hellige polygraph. The test compounds were injected into the right femoral vein. (Method: Mc Leod L. J., in: Pharmacological Experiments on Intact Preparations, E. S. Livingstone, Edinburgh and London, 1970, pp. 65-66.)

Data set [4] deals with reserpine-induced hypotermy. The experiment in a line: antagonism of reserpine-induced hypotermy in mice (antidepressant activity). The format is in vivo. The settings on record: for antidepressant efficacy/potency compared with Imipramine: mouse, in vivo. Here is the method: The antidepressant activity was assessed by measuring the antagonism of reserpine-induced hypotermy in mice. The change in body temperature (Δt) was detected as compared to the control animals (B. M. Askew, Life Sci. 10, 725 /1963/). The acute toxicity data /LD50 / were determined on mice; the evaluation was performed 24 hours after the administration of the compounds (J. T. Litchfield and F. Wilcoxon, J. Pharmacol. exp. Ther. 96, 99 /1949/).

The nature of data set [5]: acute toxicity (LD50) in mice. The note with it: mouse, in vivo, evaluated 24 hours after administration.
Data set [6] is described as follows: oral blood pressure lowering in awake spontaneously hypertensive rats. It is filed as in vivo. The note with it: 1.0 to 2.5 mg/kg orally. From the text:
A group of the new compounds according to the invention exerts hypotensive effect on anesthetized animals in low dosages. […] The hypotensive effect of the compounds is accompanied by bradycardia; they inhibit the vasomotor reflexes acting both at central and peripheral target structures. The mechanism of hypotensive effect is different in certain aspects from that of the hydrogenated ergot alkaloids; namely, the new derivatives have no or only negligible adrenolytic activity. Thus, the hypotensive effect is mainly due to an action exerted on the vasomotor center. These derivatives lower the blood pressure also in hypertensive animals upon oral administration. […] The compounds according to the invention exert powerful hypotensive action also in cats.

In data set [7] the target is T1, serotonine receptor (Rattus norvegicus, UniProt P14842). Description: in vivo. The note with it: for ED50: read-out: In vivo test ED50, 50% inhibition of serotonine induced oedema. Further details: For the in vivo studies the rat paw-oedema test was applied; from tissue; host or cells: live rat, paw. It is filed as in vivo.
Data set [8] concerns the target T1, serotonine receptor. Further details: The in vitro antiserotonine activity was determined in rat uterine horn preparation; from tissue; host or cells: rat uterine horn.

Structures can show the parent of a compound that is named as a salt. Where two headings read alike, the source gives them in different places.

T1 sequence (P14842 whole entry): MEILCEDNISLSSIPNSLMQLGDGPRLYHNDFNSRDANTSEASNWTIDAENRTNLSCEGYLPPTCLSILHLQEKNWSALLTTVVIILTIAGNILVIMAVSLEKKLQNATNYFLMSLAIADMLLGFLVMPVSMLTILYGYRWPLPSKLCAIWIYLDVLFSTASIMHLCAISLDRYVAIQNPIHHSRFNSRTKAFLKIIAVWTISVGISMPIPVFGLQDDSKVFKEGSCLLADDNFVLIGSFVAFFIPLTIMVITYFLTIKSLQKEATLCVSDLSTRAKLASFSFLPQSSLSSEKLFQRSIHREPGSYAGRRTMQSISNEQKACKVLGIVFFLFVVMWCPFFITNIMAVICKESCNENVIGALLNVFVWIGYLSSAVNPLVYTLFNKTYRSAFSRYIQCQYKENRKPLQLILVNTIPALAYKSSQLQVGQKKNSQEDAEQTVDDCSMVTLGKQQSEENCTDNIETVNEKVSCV

With `CC(C)C[C@H]1C(=O)N2CCC[C@H]2[C@]2(O)O[C@](NC(=O)[C@@H]3C=C4c5cccc6[nH]c(Br)c(c56)C[C@H]4N(C)C3)(C(C)C)C(=O)N12` [Bromocryptine, 2-bromo-α-ergocryptine, reference compound], the IC50 in data set [1] came out at 20 nM. Besides, the “Antagonism of Haloperidol effect in rats, Inhibition” value in data set [2] (10.0 mg/kg p.o.) came to 25.9%; in data set [2] (10.0 mg/kg s.c.), 26.2%; in data set [2] (30.0 mg/kg p.o.) it was 54.8%; in data set [2] (30.0 mg/kg s.c.), 34.2%.
In data set [3] (0.2 mg/kg i.v.), `CN1C[C@H](C(=O)N[C@]2(C)O[C@@]3(O)[C@@H]4CCCN4C(=O)[C@H](Cc4ccccc4)N3C2=O)C[C@@H]2c3cccc4[nH]cc(c34)C[C@H]21` [Dihydroergotamine, reference compound] returned a Duration of action of 0.5 h.
`CN1CC(CN(CCOS(C)(=O)=O)S(C)(=O)=O)=CC2c3cccc4[nH]cc(c34)CC21` (centres unmarked) [Example 1, 6-Methyl-8-[(N-methanesulfonyl, N-methanesulfonyloxyethyl)-aminomethyl]-ergol-8-ene hydrogen maleate]: the “antidepressant efficacy/potency compared with Imipramine” value in data set [4] was “equal to”. The LD50 at 24 h in data set [5] (ip) and in data set [5] (po) was 100 mg/kg in each case. For the same molecule, the Duration of action in data set [3] (0.5 mg/kg i.v.) fell in the range of 1.5 to 2 h.
Take `CN1CC(CN(CCN=[N+]=[N-])S(C)(=O)=O)=CC2c3cccc4[nH]cc(c34)CC21` (centres unmarked) [Example 2, 6-Methyl-8-[(N-methanesulfonyl, N-azidoethyl)-aminomethyl]-ergol-8-ene hydrogen maleate]: in data set [4] (10 mg/kg p.o., reserpine-induced hypotermy, mice), the “Antidepressant activity, Δt (change in body temperature vs control)” value was “+6.5 °C”. Besides, the “antidepressant efficacy/potency compared with Imipramine” value in data set [4] was “higher than that of Imipramine”. For the same molecule, the LD50 at 24 h in data set [5] (ip) and in data set [5] (po) was 100 mg/kg in each case. The IC50 in data set [1] worked out at 50 nM. Further, in data set [1] (in vitro), the “dopamine stimulant efficacy compared with Bromocryptine in vitro” value is recorded as “close to that of Bromocryptine”. Besides, the “Antagonism of Haloperidol effect in rats, Inhibition” value in data set [2] (3.0 mg/kg s.c.) is reported as 68.7%; in data set [2] (10.0 mg/kg p.o.) it was 38.9%; in data set [2] (10.0 mg/kg s.c.), 92.2%; in data set [2] (30.0 mg/kg p.o.), 48.2%. Also, in data set [2] (in vivo), the “dopamine stimulant potency compared with Bromocryptine in vivo” value is given as “higher than that of the reference substance”. In addition, the “pharmacodynamic effects upon oral administration (in words)” value in data set [2] (oral) is “could also be detected upon oral administration”. For the same molecule, the Duration of action in data set [3] (0.1 mg/kg i.v.) and in data set [3] (0.5 mg/kg i.v.) was 2 h each time. Further, the “blood pressure lowering (in words)” value in data set [6] is on record as “lowered the blood pressure for several hours”.
Regarding `CN1CC(CN(CCN=[N+]=[N-])S(C)(=O)=O)=CC2c3cccc4[nH]c(Br)c(c34)CC21` (centres unmarked) [Example 3, 2-Bromo-6-methyl-8-[(N-methanesulfonyl, N-azidoethyl/aminomethyl]-ergol-8-ene hydrogen maleate], the Duration of action in data set [3] (0.1 mg/kg i.v.) and in data set [3] (0.5 mg/kg i.v.) was 1.5 h throughout.
Regarding `CN1CC(CN(CCN=[N+]=[N-])S(C)(=O)=O)=CC2c3cccc4c3c(cn4C)CC21` (centres unmarked) [Example 4, 1,6-Dimethyl-8-[(N-methanesulfonyl, N-azidoethyl/aminomethyl]-ergol-8-ene tartarate], the Duration of action in data set [3] (0.1 mg/kg i.v.) amounted to 1.5 h; in data set [3] (0.5 mg/kg i.v.), 2 h. For the same molecule, the figures for the ED50 in data set [7] (po) and in data set [7] (sc) were 3.7 mg/kg and 0.22 mg/kg, respectively. The IC50 in data set [8] was 1.21 nM.
In data set [3] (0.5 mg/kg i.v.), `CN1CC(CN(CCN=[N+]=[N-])S(C)(=O)=O)CC2c3cccc4[nH]cc(c34)CC21` (centres unmarked) [Example 7, 6-Methyl-8-[(N-methanesulfonyl, N-azidoethyl)-aminomethyl]-ergoline hydrogen maleate] showed a Duration of action of 1 h. Besides, the ED50 – broadly, the midpoint of the dose-response relation – was determined as 1.7 mg/kg in data set [7] (po) and 0.29 mg/kg in data set [7] (sc). In data set [8], this molecule gave an IC50 of 2.48 nM.
The like results for `CN1CC(CN(CCOS(C)(=O)=O)S(C)(=O)=O)CC2c3cccc4c3c(cn4C)CC21` (centres unmarked) [Example 9, 1,6-dimethyl-8-[(N-methanesulfonyl, N-methanesulfonyloxy-ethyl)-aminomethyl]-ergoline hydrogen maleate] were, in that order, 1 h, 1 mg/kg, 0.082 mg/kg and 106 nM.
For the molecule `CN1CC(CN(CCN=[N+]=[N-])S(C)(=O)=O)CC2c3cccc4c3c(cn4C)CC21` (centres unmarked) [Example 10, 1,6-dimethyl-8-[(N-methanesulfonyl, N-azidoethyl)-aminomethyl]-ergoline hydrogen maleate], in data set [3] (0.5 mg/kg i.v.), the Duration of action came to 1.5 h. Moreover, the “potency compared with Methysergide upon oral administration” value in data set [7] (in vivo, po) is on record as “more potent than Methysergide”. Besides, the ED50 in data set [7] (po) is 0.47 mg/kg; in data set [7] (sc), 0.042 mg/kg. The molecule further gave an IC50 in data set [8] of 2.4 nM.
Regarding `CN1CC(CN(CCN=[N+]=[N-])S(C)(=O)=O)CC2c3cccc4c3c(c(Br)n4C)CC21` (centres unmarked) [Example 11, 2-bromo-1,6-dimethyl-8-[(N-methanesulfonyl, N-azidoethyl)-aminomethyl]-ergoline tartarate], the Duration of action in data set [3] (0.25 mg/kg i.v.) and in data set [3] (0.5 mg/kg i.v.) was 2 h each time. Besides, the ED50 in data set [7] (po) is 2 mg/kg; in data set [7] (sc), 0.3 mg/kg. This molecule also had an IC50 in data set [8] of 101 nM.

Values taken from patent US4299836A, “Novel ergol-8-ene and ergolin compounds and process for preparing same” (Richter Gedeon Vegyeszeti Gyar Rt., priority 1979, dated 1981).
